Test results: publication PMC9767416, “Discovery of small molecule mechanistic target of rapamycin inhibitors as anti-aging and anti-cancer therapeutics” (Frontiers in Aging Neuroscience, 2022)

Experiments:
[1] = Solubility by nephelometry (water, buffer pH 7.4); assay type: physicochemical; settings: for logSpH 7.4: buffer pH 7.4; for Sol. (buffer 7.4): sodium phosphate buffer pH 7.4, nephelometry; for Sol. (H2O): ultrapure water, nephelometry; for logSH2O: water
Protocol: Compounds’ solubility was measured by the NEPHELOstar microplate instrument (BMG Labtech, Offenburg, Germany). Stock solutions were prepared by dissolving the tested compounds in ultrapure water or sodium phosphate buffer (pH 7.4) to obtain a concentration of 160 and 1,000 μg/mL. Each stock solution was sonicated at full power by Hielscher UP100H needle ultrasonic processor (Teltow, Germany) before loading into NEPHELOstar instrument injector A. Ultrapure water or sodium phosphate buffer was loaded into injector B. Compound was diluted in 48 wells in 0–160 or 0–1,000 μg/mL range and subsequently shook for 30 s. Each well was scanned with 80% laser power in matrix 3 × 3, beam width 2 mm, and obtained data were evaluated in GraphPad Prism 7.03 (GraphPad Software, San Diego, CA, USA) using segmental linear regression.

[2] = test system: C57BL/6 (B6) male mice; test: Blood counts in the tolerability study; assay type: in vivo; settings: mice, blood day 8; for Eos / HOT / MPV / Neu / PCT / PDW / RBC / RDW-CV / lvm / PLT / WBC / MCV / RDW-SD / HGB / MCHC / MCH / Mon: AVG; for PLT / WBC: in 10^9/L (unit assumed); for MCV / RDW-SD: in fL (unit assumed); for HGB / MCHC: in g/L (unit assumed); for MCH: in pg (unit assumed); for Mon: unit assumed
Protocol: Compounds were dissolved in 20 μL DMSO and completed into 200 μL with corn oil.
During the experiments, mice behavior and possible apparent signs of toxicity were monitored daily. The body weights were determined on days 0, 4, and 8. On day 8, blood (25 μL) was withdrawn using a capillary pipette containing anticoagulant (heparin) from the retroorbital sinus into EDTA-containing tubes. Basic hematological parameters were measured using the Mindray BC-5300 Vet. Mice were then killed, autopsied, and abdominal organs (spleen, liver, and kidney) were removed for visual examination and imaging by a digital camera. Single-cell suspensions from the spleens were prepared by homogenization through a cell strainer (70 μm; BD Biosciences, San Jose, CA, USA). Erythrocytes were osmotically lysed using ammonium chloride-potassium lysis buffer, and the cell suspensions were washed three times in the RPMI-1640 medium and used for further analysis by flow cytometry for selected cell populations.

[3] = test system: C57BL/6 (B6) male mice; test: Histopathological analysis of spleen, kidney and liver; assay type: in vivo; settings: mice, all three doses (5, 25, 50 mg/kg p.o.)
Protocol: Spleen, kidney, and liver tissue samples from the control and treated animals were fixed in 4% formaldehyde and embedded into paraffin. The analysis and evaluation were performed at the Czech Centre for Phenogenomics, Institute of Molecular Genetics of the CAS, Vestec, using Leica ASP6025 automatic vacuum tissue processor for tissue processing, Leica EG1150 H + C embedding station for embedding, and Leica RM2255 rotary microtome for sectioning (2 μm sections). Standard haematoxylin and eosin (HE) descriptive histopathological staining was done using Leica ST5020 + CV5030 stainer and coverslipped.

For `CC(C)n1nc(-c2cc3cc(O)ccc3[nH]2)c2c(N)ncnc21` [Torkinib, torkinib], the “logSpH 7.4” value [1] was <−4.71, the “logSpH 7.4” value ([1]; listed as torkinib) was < −4.60 and the “Sol. (buffer 7.4)” value [1] was <6 µg/mL. The “Sol. (buffer 7.4)” value ([1]; listed as torkinib) was “lower than 6 μg/mL”, the “Sol. (H2O)” value [1] was <6 µg/mL and the “Sol. (H2O)” value ([1]; listed as torkinib) was “lower than 6 μg/mL”. The logSH2O [1] was <−4.71, the logSH2O ([1]; listed as torkinib) was < −4.60 and the Eos ([2]; 5 mg/kg p.o. days 0, 3, 5) was 0.04. For the same molecule, the HOT ([2]; 5 mg/kg p.o. days 0, 3, 5) was 0.49, the MPV ([2]; 5 mg/kg p.o. days 0, 3, 5) was 5.33 and the Neu ([2]; 5 mg/kg p.o. days 0, 3, 5) was 0.99. The PCT ([2]; 5 mg/kg p.o. days 0, 3, 5) was 3.59, the PDW ([2]; 5 mg/kg p.o. days 0, 3, 5) was 14.57 and the RBC ([2]; 5 mg/kg p.o. days 0, 3, 5) was 9.25 10^12/L. For the same molecule, the RDW-CV ([2]; 5 mg/kg p.o. days 0, 3, 5) was 0.14, the lvm ([2]; 5 mg/kg p.o. days 0, 3, 5) was 8.67 and the PLT ([2]; 5 mg/kg p.o. days 0, 3, 5) was 690.67. It also gave a WBC ([2]; 5 mg/kg p.o. days 0, 3, 5) of 10.43, an MCV ([2]; 5 mg/kg p.o. days 0, 3, 5) of 53.73 and an RDW-SD ([2]; 5 mg/kg p.o. days 0, 3, 5) of 31.77. It also gave an HGB ([2]; 5 mg/kg p.o. days 0, 3, 5) of 146.00, an MCHC ([2]; 5 mg/kg p.o. days 0, 3, 5) of 296.67 and an MCH ([2]; 5 mg/kg p.o. days 0, 3, 5) of 15.97. The Mon ([2]; 5 mg/kg p.o. days 0, 3, 5) was 0.73 10^9/L, the Eos ([2]; 25 mg/kg p.o. days 0, 3, 5) was 0.08 and the HOT ([2]; 25 mg/kg p.o. days 0, 3, 5) was 0.52. It also gave an MPV ([2]; 25 mg/kg p.o. days 0, 3, 5) of 5.30, a Neu ([2]; 25 mg/kg p.o. days 0, 3, 5) of 0.79 and a PCT ([2]; 25 mg/kg p.o. days 0, 3, 5) of 3.79. For the same molecule, the PDW ([2]; 25 mg/kg p.o. days 0, 3, 5) was 14.73, the RBC ([2]; 25 mg/kg p.o. days 0, 3, 5) was 9.96 10^12/L and the RDW-CV ([2]; 25 mg/kg p.o. days 0, 3, 5) was 0.14. It also gave a lvm ([2]; 25 mg/kg p.o. days 0, 3, 5) of 6.68, a PLT ([2]; 25 mg/kg p.o. days 0, 3, 5) of 712.00 and a WBC ([2]; 25 mg/kg p.o. days 0, 3, 5) of 8.14. It also gave an MCV ([2]; 25 mg/kg p.o. days 0, 3, 5) of 51.90, an RDW-SD ([2]; 25 mg/kg p.o. days 0, 3, 5) of 29.23 and an HGB ([2]; 25 mg/kg p.o. days 0, 3, 5) of 154.00. The MCHC ([2]; 25 mg/kg p.o. days 0, 3, 5) was 298.00, the MCH ([2]; 25 mg/kg p.o. days 0, 3, 5) was 15.50 and the Mon ([2]; 25 mg/kg p.o. days 0, 3, 5) was 0.59 10^9/L. For the same molecule, the Eos ([2]; 50 mg/kg p.o. days 0, 3, 5) was 0.04, the HOT ([2]; 50 mg/kg p.o. days 0, 3, 5) was 0.53 and the MPV ([2]; 50 mg/kg p.o. days 0, 3, 5) was 5.43. The Neu ([2]; 50 mg/kg p.o. days 0, 3, 5) was 1.25, the PCT ([2]; 50 mg/kg p.o. days 0, 3, 5) was 4.73 and the PDW ([2]; 50 mg/kg p.o. days 0, 3, 5) was 14.67. For the same molecule, the RBC ([2]; 50 mg/kg p.o. days 0, 3, 5) was 9.95 10^12/L, the RDW-CV ([2]; 50 mg/kg p.o. days 0, 3, 5) was 0.14 and the lvm ([2]; 50 mg/kg p.o. days 0, 3, 5) was 6.32. It also gave a PLT ([2]; 50 mg/kg p.o. days 0, 3, 5) of 873.67, a WBC ([2]; 50 mg/kg p.o. days 0, 3, 5) of 8.70 and an MCV ([2]; 50 mg/kg p.o. days 0, 3, 5) of 53.27. For the same molecule, the RDW-SD ([2]; 50 mg/kg p.o. days 0, 3, 5) was 31.07, the HGB ([2]; 50 mg/kg p.o. days 0, 3, 5) was 153.67 and the MCHC ([2]; 50 mg/kg p.o. days 0, 3, 5) was 290.33. For the same molecule, the MCH ([2]; 50 mg/kg p.o. days 0, 3, 5) was 15.50, the Mon ([2]; 50 mg/kg p.o. days 0, 3, 5) was 1.09 10^9/L and the “blood count analysis, overall finding” value ([2]; p.o. 5, 25 and 50 mg/kg) was “no abnormal changes”. The “histopathology, spleen” value [3] was “minimal to moderate signs of extramedullary haematopoiesis”.
